Test results published in US5767116A, “Bicyclic aromatic compounds as therapeutic agents” (Knoll Atkiengesellschaft, priority 1993, dated 1998).
Structures can show the parent of a compound that is named as a salt. Where two headings read alike, the source gives them in different places.

Key:
α1-adrenoceptors = experiment: inhibition of tritiated ligand ([7-methoxy-^3 H]prazosin) binding to α1-adrenoceptors in vitro (whole cortical tissue); design: species or system rat (male Charles River CD); conditions: rat whole cortical tissue; for Ki: 30° C., 30 minutes, > from highest concentration which displaced ≤50% of the ligand; for % displacement at 10^-6 M, α1: 30 min, 1 µM
Protocol: The supernatant was centrifuged at 30,000 g at 4° C. for 10 minutes. […] Aliquots (400 μl; equivalent to 5 mg wet weight of tissue/tube) of this suspension were added to tubes containing the ligand (50 μl; 0.1 nM) and distilled water (50 μl; total binding) or phentolamine (50 μl; 5 μM; non-specific binding) or test compound (50 μl; at a single concentration of 10^-6 M or at 10 concentrations ranging from 10^-11 -10^-3 M). The ligand was [7-methoxy-^3 H]prazosin and the mixture was incubated at 30° C. for 30 minutes before the incubation was terminated by rapid filtration.
(§1) The filters were punched out into vials, scintillation fluid added and radioactivity determined by liquid scintillation counting. The percentage displacement of specific binding of the tritiated ligand was calculated for the single concentration (10^-6 M) of test compound. Displacement curves were then produced for those compounds which displaced ≥50% of specific binding of the tritiated ligand at 10^-6 M using a range of concentrations of the compound. […] The inhibition coefficient Ki was then calculated using the formula [formula] in which [ligand] is the concentration of the tritiated ligand used and KD is the equilibrium dissociation constant for the ligand.

5-HT1A receptors = target: T1, 5-HT1A receptors (Rattus norvegicus, UniProt P19327); experiment: biochemical; assay type: binding, rat (male Charles River CD); conditions: for Ki: 25° C., 30 minutes
T1 sequence (P19327 1-422): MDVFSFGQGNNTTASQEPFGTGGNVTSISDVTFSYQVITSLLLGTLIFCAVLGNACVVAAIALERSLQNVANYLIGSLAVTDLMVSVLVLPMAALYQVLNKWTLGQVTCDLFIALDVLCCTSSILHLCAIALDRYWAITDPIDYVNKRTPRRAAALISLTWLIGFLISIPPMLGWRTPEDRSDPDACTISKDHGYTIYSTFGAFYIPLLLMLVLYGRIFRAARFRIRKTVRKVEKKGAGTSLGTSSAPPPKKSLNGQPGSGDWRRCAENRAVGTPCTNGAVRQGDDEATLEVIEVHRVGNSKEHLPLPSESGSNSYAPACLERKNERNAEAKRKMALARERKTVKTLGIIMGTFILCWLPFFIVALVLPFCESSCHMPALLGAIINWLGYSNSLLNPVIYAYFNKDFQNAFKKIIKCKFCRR
Protocol: The pellet was rehomogenised in the same buffer, incubated at 37° C. for 10 minutes and centrifuged at 30,000 g at 4° C. for 10 minutes. […] Aliquots (400 μl; equivalent to 2.5 mg wet weight of tissue/tube) of this suspension were added to tubes containing the ligand (50 μl; 2 nM) and distilled water (50 μl; total binding) or 5-HT (50 μl; 10 µM; non-specific binding) or test compound (50 μl; at a single concentration of 10^-6 M or at 10 concentrations ranging from 10^-11 -10^-3 M). The ligand was [^3 H]8-hydroxy-2-(dipropylamino)tetralin([^3 H]8-OH-DPAT) and the mixture was incubated at 25° C. for 30 minutes before the incubation was terminated by rapid filtration.
as §1

α2-adrenoceptors = target: T2, α2-adrenoceptors (Rattus norvegicus, UniProt P22909); experiment: inhibition of tritiated ligand (tritiated idazoxan) binding to α2-adrenoceptors in vitro (frontal cortical tissue); design: species or system rat (male Charles River CD); conditions: for Ki: rat frontal cortical tissue, tritiated idazoxan, 0° C., 75 minutes, > from highest concentration which displaced ≤50% of the ligand; for inhibition at 1 µM: read-out: % displacement at 10^-6 M, α2, 10^-6 M, rat frontal cortical tissue, tritiated idazoxan
T2 sequence (P22909 1-465): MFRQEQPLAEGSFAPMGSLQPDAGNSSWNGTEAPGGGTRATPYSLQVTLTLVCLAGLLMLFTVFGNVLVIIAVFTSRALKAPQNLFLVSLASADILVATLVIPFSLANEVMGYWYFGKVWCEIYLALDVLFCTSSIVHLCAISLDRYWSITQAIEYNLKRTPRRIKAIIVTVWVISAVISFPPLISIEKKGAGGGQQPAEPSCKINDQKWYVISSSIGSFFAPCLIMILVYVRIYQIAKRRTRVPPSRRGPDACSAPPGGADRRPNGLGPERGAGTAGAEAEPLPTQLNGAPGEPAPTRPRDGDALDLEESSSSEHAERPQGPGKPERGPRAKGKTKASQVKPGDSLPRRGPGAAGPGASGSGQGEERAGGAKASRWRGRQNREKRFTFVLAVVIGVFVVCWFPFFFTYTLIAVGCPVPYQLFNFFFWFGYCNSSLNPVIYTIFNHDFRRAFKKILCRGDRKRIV
Protocol: Frontal cortical tissue from the brains of male Charles River CD rats weighing between 150-250 g were homogenised in ice-cold 0.25M sucrose (1:30 w/v) and centrifuged at 1,000 g at 4° C. for 12 minutes. The supernatant was stored on ice and the pellet was rehomogenised in 0.25M sucrose (1:15 w/v) and centrifuged at 850 g at 4° C. for 12 minutes. Combined supernatants were diluted with 5 mM Tris-HCl (pH 7.5) containing 0.5M ethylenediamine tetraacetic acid (EDTA) readjusted to pH 7.5 (at 25° C.) with 1M sodium hydroxide to 1:80 w/v, and centrifuged at 30,000 g at 4° C. for 10 minutes. The resulting pellet was resuspended in 5 mM Tris-HCl (pH 7.5) containing 5.68 mM L-ascorbic acid and 5 mM EDTA readjusted to pH 7.5 (at 25° C.) with 1M sodium hydroxide, and centrifuged at 30,000 g for 10 minutes. The final pellet was resuspended in 50 mM Tris-HCl (pH 7.5) containing 5.68 mM L-ascorbic acid and 5 mM EDTA (equivalent to 12.5 mg wet weight of tissue/ml) and used immediately in the binding assay. Aliquots (400 μl; equivalent to 5 mg wet weight of tissue/tube) of this suspension were added to tubes containing the ligand (50 μl; 1 nM) and distilled water (50 μl; total binding) or phentolamine (50 μl; 5 μM; non-specificbinding) or test compound (50 μl; at a single concentration of 10^-6 M or at 10 concentrations ranging from 10^-11 -10^-3 M). The ligand was tritiated idazoxan ((1,4-[6,7(n)-^3 H]benzodioxan-2-yl)-2-imidazoline hydrochloride) and the mixture was incubated at 0° C. for 75 minutes before the incubation was terminated by rapid filtration.
as §1, with “The filters were washed with ice-cold Tris-HCl buffer and dried. The filters” for “The filters”

D2 dopamine receptors = D2 dopamine receptors (Rattus norvegicus, UniProt P61169); experiment: biochemical; assay type: binding, rat (male Charles River CD); conditions: rat striatal tissue, tritiated (S)-sulpiride; for Ki: 4° C., 40 minutes
[1] = rat hippocampal tissue, [^3 H]8-OH-DPAT
[2] = read-out: % displacement at 10^-6 M, 5-HT1A, 10^-6 M, rat hippocampal tissue, [^3 H]8-OH-DPAT
[3] = 10^-6 M, rat hippocampal tissue, [^3 H]8-OH-DPAT, read-out: % displacement at 10^-6 M, 5-HT1A

Sequence of D2 dopamine receptors (P61169 whole entry): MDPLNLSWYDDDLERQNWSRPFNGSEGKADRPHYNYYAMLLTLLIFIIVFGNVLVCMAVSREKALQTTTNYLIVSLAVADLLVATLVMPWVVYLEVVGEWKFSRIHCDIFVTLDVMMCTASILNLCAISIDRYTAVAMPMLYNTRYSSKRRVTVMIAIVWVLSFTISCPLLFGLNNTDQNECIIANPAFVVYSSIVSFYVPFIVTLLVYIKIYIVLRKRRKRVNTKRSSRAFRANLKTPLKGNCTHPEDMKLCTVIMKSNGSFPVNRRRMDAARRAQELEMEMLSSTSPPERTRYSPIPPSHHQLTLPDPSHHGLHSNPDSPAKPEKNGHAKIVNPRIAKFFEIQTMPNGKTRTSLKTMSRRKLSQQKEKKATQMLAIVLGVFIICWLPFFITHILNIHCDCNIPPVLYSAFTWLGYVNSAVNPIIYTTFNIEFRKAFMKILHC

For `COc1cccc2c1CC(CNCC1CCN(c3ncccn3)CC1)CC2` (stereo not drawn) [Example 9, N-(8-methoxy-1,2,3,4-tetrahydronaphth-2-ylmethyl)-1-[1-(pyrimidin-2-yl)piperid-4-yl]methylamine 1.1 hydrochloride], the Ki (α1-adrenoceptors) was 34 nM, the Ki (5-HT1A receptors; [1]) was 8.2 nM and the Ki (α2-adrenoceptors) was > 500 nM. For the same compound, the Ki (D2 dopamine receptors) was 46.4 nM.

`Cl.Clc1ccccc1N1CCC(CNCC2COc3ccccc3O2)CC1` (stereo not drawn) [Example 22, N-(1,4-benzodioxan-2-ylmethyl)-1-[1-(2-chlorophenyl)piperid-4-yl]methylamine hydrochloride] was tested, and the “% displacement at 10^-6 M, α1” value (α1-adrenoceptors) was 71%, the inhibition at 1 µM (5-HT1A receptors; [2]) was 95% and the inhibition at 1 µM (α2-adrenoceptors) was 63%. The Ki (D2 dopamine receptors) was 43.5 nM.

With `COc1ccccc1N1CCC(CNCC2COc3cccc(OC)c3O2)CC1` (stereo not drawn) [Example 6, N-(8-methoxy-1,4-benzodioxan-2-ylmethyl)-1-[1-(2-methoxyphenyl)piperid-4-yl]methylamine dihydrochloride] the Ki (α1-adrenoceptors) was 3.7 nM, the Ki (5-HT1A receptors; [1]) was 252 nM and the inhibition at 1 µM (α2-adrenoceptors) was 92%. The Ki (D2 dopamine receptors) was 8.5 nM.

`c1ccc(N2CCC(CNCC3COc4ccccc4O3)CC2)nc1` (stereo not drawn) [Example 5, N-(1,4-benzodioxan-2-ylmethyl)-1-[1-(pyrid-2-yl)piperid-4-yl]methylamine dihydrochloride] gave a Ki (α1-adrenoceptors) of 79 nM, a Ki (5-HT1A receptors; [1]) of 22.6 nM and a Ki (α2-adrenoceptors) of 50 nM. It also gave a Ki (D2 dopamine receptors) of 29 nM.

Compound `FC(F)(F)c1cccnc1NCCNCC1COc2ccccc2O1` (stereo not drawn) [Example 8, N-(1,4-benzodioxan-2-ylmethyl)-N'-[3-(trifluoromethyl)-2-pyridyl)]-ethanediamine dihydrochloride] has a Ki (α1-adrenoceptors) of 14 nM, a Ki (5-HT1A receptors; [1]) of 18.8 nM and a Ki (α2-adrenoceptors) of 70 nM. The Ki (D2 dopamine receptors) was 110 nM.

`COc1ccccc1N1CCC(CNCC2COc3ccccc3O2)CC1` (stereo not drawn) [Example 2, N-(1,4-benzodioxan-2-ylmethyl)-1-[1-(2-methoxyphenyl)piperid-4-yl]methylamine dihydrochloride] was tested, and the Ki (α1-adrenoceptors) was 78 nM, the Ki (5-HT1A receptors; [1]) was 7.7 nM and the Ki (α2-adrenoceptors) was 394 nM. For the same compound, the Ki (D2 dopamine receptors) was 19 nM.

With `COc1ccccc1NCCCNCC1COc2cccc(OC)c2O1.O=C(O)/C=C\C(=O)O` (stereo not drawn) [Example 17, N-(8-methoxy-1,4-benzodioxan-2-ylmethyl)-N'-(2-methoxyphenyl)-1,3-propanediamine maleate] the “% displacement at 10^-6 M, α1” value (α1-adrenoceptors) was 93%, the inhibition at 1 µM (5-HT1A receptors; [3]) was 99% and the Ki (α2-adrenoceptors) was > 500 nM. The Ki (D2 dopamine receptors) was 4.3 nM.

With `c1ccc2c(c1)OCC(CNCC1CCN(c3cnccn3)CC1)O2` (stereo not drawn) [Example 1, N-(1,4-benzodioxan-2-ylmethyl)-1-[1-(pyrazin-2-yl)piperid-4-yl]methylamine1.4 hydrochloride] the Ki (α1-adrenoceptors) was 23.9 nM, the Ki (5-HT1A receptors; [1]) was 14 nM and the Ki (α2-adrenoceptors) was 31 nM. The Ki (D2 dopamine receptors) was 15.6 nM.

`Clc1cccnc1N1CCC(CNCC2COc3ccccc3O2)CC1` (stereo not drawn) [Example 3, N-(1,4-benzodioxan-2-ylmethyl)-1-[1-(3-chloropyrid-2-yl)piperid-4-yl]methylamine 1.4 hydrochloride] gave a Ki (α1-adrenoceptors) of 38 nM, a Ki (5-HT1A receptors; [1]) of 1.9 nM and a Ki (α2-adrenoceptors) of 86 nM. For the same compound, the Ki (D2 dopamine receptors) was 45.3 nM.

`COc1ccccc1N1CCC(CNCC2COc3ccc4ccccc4c3O2)CC1` (stereo not drawn) [Example 24, 1-[1-(2-methoxyphenyl)piperid-4-yl]-N-(naphtho[1,2-b]dioxan-2-ylmethyl) methylamine hydrochloride 1.3 hydrate] was tested, and the Ki (α1-adrenoceptors) was > 500 nM, the inhibition at 1 µM (5-HT1A receptors; [3]) was 97% and the Ki (α2-adrenoceptors) was > 500 nM. For the same compound, the Ki (D2 dopamine receptors) was 81.3 nM.

`COc1ccccc1N1CCC(CNCC2COc3cc(Cl)c(Cl)cc3O2)CC1` (stereo not drawn) [Example 21, N-(6,7-dichloro-1,4-benzodioxan-2-ylmethyl)-1-[1-(2-methoxyphenyl)piperid-4-yl]methylaminehydrochloride] was tested, and the Ki (α1-adrenoceptors) was > 500 nM, the inhibition at 1 µM (5-HT1A receptors; [3]) was 74% and the Ki (α2-adrenoceptors) was > 500 nM. For the same compound, the inhibition at 1 µM (D2 dopamine receptors; 10^-6 M, read-out: % displacement at 10^-6 M, D2) was 104%.

With `Oc1cccc2c1CC(CNCC1CCN(c3ncccn3)CC1)CC2` (stereo not drawn) [Example 10, 7-{N-[1-(pyrimidin-2-yl)piperid-4-ylmethyl}-aminomethyl)-5,6,7,8-tetrahydronaphth-1-ol dihydrobromide] the Ki (α1-adrenoceptors) was 339 nM, the Ki (5-HT1A receptors; [1]) was 7.7 nM and the Ki (α2-adrenoceptors) was > 500 nM. The Ki (D2 dopamine receptors) was 310 nM.

`c1ccc2c(c1)OCC(CNCC1CCN(c3ncnc4ccccc34)CC1)O2` (stereo not drawn) [Example 4, N-(1,4-benzodioxan-2-ylmethyl)-1-[1-(quinazolin-4-yl)piperid-4-yl]methylamine dihydrochloride] was tested, and the Ki (α1-adrenoceptors) was 13 nM, the Ki (5-HT1A receptors; [1]) was 3.8 nM and the Ki (α2-adrenoceptors) was 30 nM. It also gave a Ki (D2 dopamine receptors) of 35.8 nM.

`COc1cccc2c1CC(CNCC1CCN(c3ncccn3)CC1)CO2` (stereo not drawn) [Example 11, N-(5-methoxy-3,4-dihydro-2H-1-benzopyran-3-ylmethyl)-1-(1-(pyrimidin-2-yl)piperid-4-yl]methylamine monofumarate] was tested, and the Ki (α1-adrenoceptors) was 31 nM, the Ki (5-HT1A receptors; [1]) was 14.7 nM and the Ki (α2-adrenoceptors) was > 500 nM. The Ki (D2 dopamine receptors) was 12.9 nM.

For `COc1cccc2c1OC(CNCC1CCN(c3cccc4c3OCC4)CC1)CO2.Cl` (stereo not drawn) [Example 25, 1-[1-(2,3-dihydrobenzo[b]furan-7-yl)piperid-4-yl]-N-(8-methoxy-1,4-benzodioxan-2-ylmethyl) methylamine hydrochloride], the “% displacement at 10^-6 M, α1” value (α1-adrenoceptors) was 99%, the inhibition at 1 µM (5-HT1A receptors; [2]) was 101% and the inhibition at 1 µM (α2-adrenoceptors) was 96%. It also gave a Ki (D2 dopamine receptors) of 20.9 nM.
